Data: patent publication US8193235B2, “Compositions and methods for establishing and maintaining stem cells in an undifferentiated state” (University of Kansas, priority 2009, dated 2012)

How the values were obtained:
β-catenin = assay: Cytosolic β-catenin stabilization assay; type: cell-based, mouse; details: mESCs
Description: Cytosolic β-Catenin Stabilization Assay. ES cells were treated with Wnt3A-conditioned medium or Gö6983 or LIF for 10 hours, and lysed hypotonically on ice with 1× TE (pH 7.4) with protease inhibitors. Lysates were centrifuged at 100,000 g at 4° C. for 45 minutes to collect and analyze cytosolic fractions.

Eed−/− ES cells = Eed−/− ES cells on collagen IV without LIF
Description: Eed^−/− ES Cells. Eed^−/− ES cells, passage 4, were maintained in same medium as mentioned for Ezh2^−/− cells but supplemented with extra LIF (2000 U/ml) to suppress spontaneous differentiation.

[1] = test system: H3K27me3, EZH2, H3K9Me3, H3K4Me3 at gene loci; assay: Quantitative ChIP assay of chromatin marks; type: cell-based, mouse
Description: Quantitative ChIP Assay. Real-time PCR-based quantitative ChIP analysis was performed according to known methods (Dutta, et al. (2008) supra). Proliferating E14 cells (+LIF), ES cells differentiated on Collagen-IV with or without Gö6983 were either trypsinized or collected by using cell-dissociaton buffer and protein-DNA crosslinking was conducted by treating cells with formaldehyde at a final concentration of 1% for 10 minutes at room temperature with gentle agitation. Glycine (0.125 M) was added to quench the reaction. Antibodies against EZH2, SUZ12, H3K27Me3, H3K9Me3, and H3K4Me3 were used to immunoprecipitate protein-DNA crosslinked fragments. Immunoprecipitated DNA was analyzed by real-time PCR (ABI 7500, Applied Biosystem, Foster City, Calif.). Samples from three or more immunoprecipitates were analyzed using a standard curve from sonicated total chromatin (input) samples.

DCIS.com cells = assay: Mamosphere formation of breast cancer cells; type: cell-based
Description: In addition to ES and iPS cells, it was determined whether blockade of PKC signaling facilitated the propagation of cancer stem cells. To that end, mamosphere formation of a breast cancer cell type known as DCIS.com was analyzed. Mamospheres are specialized structures formed by breast cancer cell types and are indicative of presence and propagation of breast cancer stem cells. […] Therefore, blockade of PKC signaling can be used to efficiently propagate and expand cancer stem cells.

endothelial cells = details: Dutta, et al. (2008); cited from earlier work
E14 ES cells = assay: Cell Proliferation Assay; type: cell-based; details: Mus musculus
Description: Cell Proliferation Assay. E14 ES cells were seeded and incubated for 2 days in the presence of different concentrations of Gö6983. Cell proliferation was measured with […] 96 AQUEOUS One Solution Reagent (Promega, Madison, Wis.) following the manufacturer's protocol.

PKCζkd cells = PKCζkd cells cultured on collagen IV without LIF; type: cell-based, mouse
Excerpt: ES Cell Differentiation on Collagen-IV and With Retinoic Acid. To differentiate ES cells in monolayer culture on collagen IV, around 3×10^4 cells per well were transferred to collagen IV-coated 6-well plates (BD Biosciences, Franklin Lakes, N.J.) cultured for 5 days in ES differentiation medium containing DMEM (Invitrogen), 15% FBS (selected for endothelial differentiation, Stem Cell Technologies, Vancouver, BC), sodium pyruvate and L-glutamine with or without LIF and Gö6983, and were recovered by cell dissociation buffer (BD Biosciences, Franklin Lakes, N.J.). For culturing multiple passages with Gö6983 on collagen-IV, the recovered cells were again plated at a density of ˜3×10^4 cells per well and cultured again for 5 days. […] For RA-induced differentiation on monolayer culture, ES cells were treated with all-trans-retinoic acid (Sigma, St. Louis, Mo.) in ethanol at a concentration of 1 μM with or without LIF and Gö6983 for 6 days followed by study of expression of pluripotency markers (by immunofluorescence or western blot or RT-PCR analysis).
RNA Interference and Rescue of PKCζ Expression in RKCζkd Cells. Lentiviral vectors containing short hairpin RNAs (shRNAs) targeting mouse PKCζ mRNA were cloned in pLKO1 (Open Biosystems, Huntsville, Ala.). Lentiviral supernatants were produced in HEK-293T cells according to known methods (Dutta, et al. (2008) supra). […]

RelA and LGL1/2 = assay: Phosphorylation of PKC ζ target proteins in mESCs; type: cell-based, mouse
Description: Western Blot Analysis. Whole cell lysates were prepared in SDS-gel loading buffer and resolved by 10% PAGE. The antibodies used for this study included β-actin Clone AC-15 from Sigma; p-STAT3 (Tyr705), p-p44/42 MAPK (tyr202/tyr204), p44/42 MAPK, GSK3β, Phospho Akt (Ser473), Akt, p-NFκβ p65 (Ser536), c-Myc, p-c-Myc (Thr58/Ser62), p-p90RSK (Thr359/Ser363), RSK1, Suz12 (D39F6), and Ezh2 (AC22) from Cell Signaling Technology; STAT3 (C-20), Oct-4 (C-10), Nanog (M-149), PKC α (C-20), PKC βI (C-16), PKC βII (C-18), PKC γ (C-19), PKC δ (C-20), PKC ζ (c-20), p-PKC ζ (Thr 410)-R, p-NFκβ p65 (ser311), and RelA (p65) from Santa Cruz Biotechnology; p-LGL1/LGL2 (S650/S654), SSEA4and H3K4Me3 from Abcam; LGL2 (M06), clone 4G2 from Abnova; β-Catenin from BD Transduction Laboratories, and H3K27Me3 and H3K9Me3 from Millipore.

## COc1ccc2c(c1)c(C1=C(c3c[nH]c4ccccc34)C(=O)NC1=O)cn2CCCN(C)C [Gö6983, 3-[1-[3-(dimethylamino)propyl]5-methoxy-1H-indol-3-yl]-4-(1H-indol-3-yl)-1H-pyrrole-2,5-dione]
β-catenin
  β-catenin stabilization: did not stabilize
Eed−/− ES cells; collagen IV without LIF
  colony morphology and pluripotency markers of Eed−/− cells: largely maintained undifferentiated colony morphology and expression of pluripotency markers
Eed−/− ES cells; in the presence of Gö6983
  expression of developmental regulator genes in Eed−/− cells: significantly induced
[1]
  H3K4 methylation (H3K4Me3) at Oct4 and Nanog loci: high levels of H3K4 methylation
  H3K9 methylation at the Oct4 and Nanog loci: inhibited H3K9 methylation
[1]; mESCs
  H3K27me3 and EZH2 chromatin occupancy at developmental regulator genes: maintained high levels of H3K27me3 and chromatin occupancy
DCIS.com cells
  mamosphere formation: efficiently generated mamospheres
Endothelial cells
  angiogenic signal-induced VEGFR1 expression in endothelial cells: inhibits angiogenic signal-induced VEGFR1 expression
E14 ES cells
  inhibition at 2.5 µM: ~30%
PKCζkd cells; FIG. 2C
  expression of pluripotency markers in PKCζkd cells on collagen IV: maintained the expression of pluripotency markers
PKCζkd cells; without LIF
  differentiation of PKCζkd cells on collagen IV: inhibited differentiation of PKCζkd cells
RelA and LGL1/2
  phosphorylation of RelA and LGL1/2: impaired
